The values below come from patent publication US11759509B2, “WT1 antigen peptide conjugate vaccine” (Sumitomo Pharma Co., Ltd., priority 2013, dated 2023).

Positions of bridges follow the written chain, without caps; N, C: chain ends. Residues, ends and D or L forms follow the SMILES beside them. Chains are numbered I, II in the order given. No end group written: not given here.

The nature of data set [1]: physchem. Conditions: for solubility at 90 min: pH 6; for solubility thermodynamic at 90 min: pH 7.4.
Protocol: Measurement of Solubility
(§1) 75% aqueous solution of disodium hydrogen phosphate and 5.53% aqueous solution of citric acid were mixed, and respective buffers (pH 6.0 and 7.4) were prepared.
(§2) About 1 mg of a test product was measured, an isotonic buffer (0.5 mL) was added, and this was used as a test solution. The prepared test solution was shaken at room temperature for 90 min (shaking conditions: RECIPRO SHAKER SR-1N manufactured by TAITEC, Speed=8), centrifuged (15000 rpm, 5 min, room temperature), and the supernatant after centrifugation was used as a test solution.
(§3) About 1 mg of the test product was accurately measured, dissolved in 0.1% TFA water/acetonitrile=1/1, made the total amount 10 mL, and this was used as a standard solution of the test product.
(§4) The standard solution of the test product and the test solution were analyzed by HPLC (analysis conditions described in Table 59), and the solubility of the test product was calculated from the peak area ratio of the standard solution.
(§5) • column: ChemcoPack Quicksorb (4.6 mmφ×150 mm, 5 μm) manufactured by Chemco Scientific Co., Ltd. • mobile phase: SOLUTION A; 0.1% TFA water, SOLUTION B; 0.1% TFA acetonitrile solution • column temperature: room temperature • flow rate: 1 mL/min • detection wavelength: UV 254 nm, 230 nm (2 wavelength detection) • sample injection volume: 10 μL
For data set [2], the target named is ERAP1 (Homo sapiens, UniProt Q9NZ08). As to the kind of experiment: Time-course changes of trimming of N-terminal amino acid by ERAP1. The class given is biochemical. The conditions noted are these: room temperature. The method, then:
Time-Course Changes of Trimming of N-Terminal Amino Acid by ERAP1
30 μl of ERAP1 (2.0 mg/ml) in PBS buffer solution was added to 258 μl of Tris·HCl buffer. DMSO solution (12.0 μl) of 10 mM each peptide was added to the aforementioned ERAP1 solution, and the mixture was blended well and stood at room temperature. 1.0, 2.0, 4.0, 8.0 hr later, 50 μl of a sample was added to 150 μl of MeOH to terminate the reaction, 25 μl was injected into UFLC (analysis conditions shown below), and AUC of the object peptide was determined. […] Concentration of SOLUTION B was raised from 1.0% to 70% from 0.0 min to 5.0 min • 2. Concentration of SOLUTION B was raised from 1.0% to 50% from 0.0 min to 5.0 min • object peptide: […]

A short description of data set [3]: Measurement of solubility in isotonic buffer (pH 6.0 and 7.4). The conditions noted are these: isotonic disodium hydrogen phosphate/citric acid buffer.
Protocol: Measurement of Solubility
as §1, §2, §3, §4, §5

Broadly, the solubility is the dissolved amount per volume that the medium holds. A higher solubility goes with much dissolved substance. By solubility (thermodynamic) is commonly meant the concentration in solution at equilibrium with solid.

Sequence of ERAP1 (Q9NZ08 whole entry): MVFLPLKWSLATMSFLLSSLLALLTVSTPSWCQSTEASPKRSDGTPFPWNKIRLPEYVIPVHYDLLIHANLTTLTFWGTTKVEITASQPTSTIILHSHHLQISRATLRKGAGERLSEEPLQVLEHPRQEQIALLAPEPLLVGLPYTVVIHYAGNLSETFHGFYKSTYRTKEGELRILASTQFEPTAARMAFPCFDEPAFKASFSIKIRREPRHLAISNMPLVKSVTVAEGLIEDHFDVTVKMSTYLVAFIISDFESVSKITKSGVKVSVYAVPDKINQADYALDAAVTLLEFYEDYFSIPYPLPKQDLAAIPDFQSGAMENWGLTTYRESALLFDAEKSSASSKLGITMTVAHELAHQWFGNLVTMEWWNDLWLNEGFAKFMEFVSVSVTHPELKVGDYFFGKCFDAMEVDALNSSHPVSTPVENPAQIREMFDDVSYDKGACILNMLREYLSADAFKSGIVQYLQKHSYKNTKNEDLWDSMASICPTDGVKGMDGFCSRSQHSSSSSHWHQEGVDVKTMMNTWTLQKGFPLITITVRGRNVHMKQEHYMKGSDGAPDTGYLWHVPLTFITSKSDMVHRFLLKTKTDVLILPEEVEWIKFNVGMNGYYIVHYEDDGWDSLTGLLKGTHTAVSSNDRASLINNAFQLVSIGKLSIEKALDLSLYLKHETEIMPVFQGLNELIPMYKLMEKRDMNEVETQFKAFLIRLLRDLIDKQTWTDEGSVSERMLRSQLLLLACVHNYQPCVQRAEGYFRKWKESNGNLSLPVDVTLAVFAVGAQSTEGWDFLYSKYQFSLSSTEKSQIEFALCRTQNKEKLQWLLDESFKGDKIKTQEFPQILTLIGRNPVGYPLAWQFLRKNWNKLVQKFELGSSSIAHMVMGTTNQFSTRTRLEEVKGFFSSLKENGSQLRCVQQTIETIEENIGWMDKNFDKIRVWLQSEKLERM

Turning to `CSCC[C@H](NC(=O)[C@@H](N)CCCNC(=N)N)C(=O)N[C@@H](Cc1ccccc1)C(=O)N1CCC[C@H]1C(=O)N[C@@H](CC(N)=O)C(=O)N[C@@H](C)C(=O)N1CCC[C@H]1C(=O)N[C@@H](Cc1ccc(O)cc1)C(=O)N[C@@H](CC(C)C)C(=O)O` [SEQ ID NO: 2], in data set [1], the solubility at 90 min was more than 1000 µg/mL and the solubility (thermodynamic) at 90 min was more than 1000 µg/mL.
In data set [1], `CSCC[C@H](NC(=O)[C@H](CCCNC(=N)N)NC(=O)[C@@H](N)CSSC[C@H](N)C(=O)N[C@@H](CO)C(=O)N[C@@H](CC(C)C)C(=O)NCC(=O)N[C@@H](CCC(=O)O)C(=O)N[C@@H](CCC(N)=O)C(=O)N[C@@H](CCC(N)=O)C(=O)N[C@@H](Cc1ccc(O)cc1)C(=O)N[C@@H](CO)C(=O)N[C@H](C(=O)O)C(C)C)C(=O)N[C@@H](Cc1ccccc1)C(=O)N1CCC[C@H]1C(=O)N[C@@H](CC(N)=O)C(=O)N[C@@H](C)C(=O)N1CCC[C@H]1C(=O)N[C@@H](Cc1ccc(O)cc1)C(=O)N[C@@H](CC(C)C)C(=O)O` [formula (3)] (I: H-CRMFPNAPYL-OH / II: H-CSLGEQQYSV-OH; disulfide I:1-II:1) returned a solubility at 90 min of more than 1000 µg/mL and a solubility (thermodynamic) at 90 min of more than 1000 µg/mL.
In data set [1], `CSCC[C@H](NC(=O)[C@H](CCC(N)=O)NC(=O)[C@H](CC(N)=O)NC(=O)[C@H](Cc1c[nH]c2ccccc12)NC(=O)[C@@H](NC(=O)[C@H](Cc1ccc(O)cc1)NC(=O)[C@@H](N)CSSC[C@H](N)C(=O)N[C@@H](CCCNC(=N)N)C(=O)N[C@@H](CCSC)C(=O)N[C@@H](Cc1ccccc1)C(=O)N1CCC[C@H]1C(=O)N[C@@H](CC(N)=O)C(=O)N[C@@H](C)C(=O)N1CCC[C@H]1C(=O)N[C@@H](Cc1ccc(O)cc1)C(=O)N[C@@H](CC(C)C)C(=O)O)[C@@H](C)O)C(=O)N[C@@H](CC(N)=O)C(=O)N[C@@H](CC(C)C)C(=O)O` [formula (5)] (I: H-CRMFPNAPYL-OH / II: H-CYTWNQMNL-OH; disulfide I:1-II:1) gave a solubility at 90 min of 511 µg/mL and a solubility (thermodynamic) at 90 min of 200 µg/mL.
In data set [1], `CSCC[C@H](NC(=O)[C@H](CCC(N)=O)NC(=O)[C@H](CC(C)C)NC(=O)[C@H](Cc1c[nH]cn1)NC(=O)[C@H](CO)NC(=O)[C@H](CC(C)C)NC(=O)[C@H](CCCCN)NC(=O)[C@H](Cc1ccccc1)NC(=O)[C@H](Cc1ccc(O)cc1)NC(=O)[C@H](CCCNC(=N)N)NC(=O)[C@H](CCCCN)NC(=O)[C@H](CC(N)=O)NC(=O)[C@@H](N)CSSC[C@H](N)C(=O)N[C@@H](CCCNC(=N)N)C(=O)N[C@@H](CCSC)C(=O)N[C@@H](Cc1ccccc1)C(=O)N1CCC[C@H]1C(=O)N[C@@H](CC(N)=O)C(=O)N[C@@H](C)C(=O)N1CCC[C@H]1C(=O)N[C@@H](Cc1ccc(O)cc1)C(=O)N[C@@H](CC(C)C)C(=O)O)C(=O)N[C@@H](Cc1c[nH]cn1)C(=O)N[C@@H](CO)C(=O)N[C@@H](CCCNC(=N)N)C(=O)N[C@@H](CCCCN)C(=O)N[C@@H](Cc1c[nH]cn1)C(=O)N[C@H](C(=O)NCC(=O)O)[C@@H](C)O` [formula (6)] (I: H-CNKRYFKLSHLQMHSRKHTG-OH / II: H-CRMFPNAPYL-OH; disulfide I:1-II:1) returned a solubility at 90 min of more than 1000 µg/mL and a solubility (thermodynamic) at 90 min of 279 µg/mL.
`CSCC[C@H](NC(=O)[C@H](CCC(N)=O)NC(=O)[C@H](CC(C)C)NC(=O)[C@H](Cc1c[nH]cn1)NC(=O)[C@H](CO)NC(=O)[C@H](CC(C)C)NC(=O)[C@H](CCCCN)NC(=O)[C@H](Cc1ccccc1)NC(=O)[C@H](Cc1ccc(O)cc1)NC(=O)[C@H](CCCNC(=N)N)NC(=O)[C@H](CCCCN)NC(=O)[C@H](CC(N)=O)NC(=O)[C@@H](N)CSSC[C@H](N)C(=O)N[C@@H](CCCNC(=N)N)C(=O)N[C@@H](CCSC)C(=O)N[C@@H](Cc1ccccc1)C(=O)N1CCC[C@H]1C(=O)N[C@@H](CC(N)=O)C(=O)N[C@@H](C)C(=O)N1CCC[C@H]1C(=O)N[C@@H](Cc1ccc(O)cc1)C(=O)N[C@@H](CC(C)C)C(=O)O)C(=O)N[C@@H](Cc1c[nH]cn1)C(=O)N[C@@H](CO)C(=O)N[C@@H](CCCNC(=N)N)C(=O)N[C@@H](CCCCN)C(=O)O` [formula (8)] (I: H-CNKRYFKLSHLQMHSRK-OH / II: H-CRMFPNAPYL-OH; disulfide I:1-II:1): in data set [1], the solubility at 90 min is more than 1000 µg/mL and the solubility (thermodynamic) at 90 min turned out to be 789 µg/mL.
Taken in the same sequence, the figures for `CSCC[C@H](NC(=O)[C@H](CCC(N)=O)NC(=O)[C@H](CC(C)C)NC(=O)[C@H](Cc1c[nH]cn1)NC(=O)[C@H](CO)NC(=O)[C@H](CC(C)C)NC(=O)[C@H](CCCCN)NC(=O)[C@H](Cc1ccccc1)NC(=O)[C@H](Cc1ccc(O)cc1)NC(=O)[C@H](CCCNC(=N)N)NC(=O)[C@H](CCCCN)NC(=O)[C@H](CC(N)=O)NC(=O)[C@@H](N)CSSC[C@H](N)C(=O)N[C@@H](C)C(=O)N[C@@H](CC(C)C)C(=O)N[C@@H](CC(C)C)C(=O)N1CCC[C@H]1C(=O)N[C@@H](C)C(=O)N[C@H](C(=O)N1CCC[C@H]1C(=O)N[C@@H](CO)C(=O)N[C@@H](CC(C)C)C(=O)O)C(C)C)C(=O)N[C@@H](Cc1c[nH]cn1)C(=O)N[C@@H](CO)C(=O)N[C@@H](CCCNC(=N)N)C(=O)N[C@@H](CCCCN)C(=O)N[C@@H](Cc1c[nH]cn1)C(=O)N[C@H](C(=O)NCC(=O)O)[C@@H](C)O` [formula (9)] (I: H-CNKRYFKLSHLQMHSRKHTG-OH / II: H-CALLPAVPSL-OH; disulfide I:1-II:1) were more than 1000 µg/mL and 565 µg/mL.
Taken in the same sequence, the figures for ALLPAVPSL [SEQ ID NO: 5] were more than 1000 µg/mL and more than 1000 µg/mL.
As to CALLPAVPSL [Example 3], in data set [2], the “formation rate (%) of the peptide obtained by trimming, 1 hr later” value (shortened to “formation rate (%) … 1 hr later”) is 65.5%; the “formation rate (%) of the peptide obtained by trimming, 2 hr later” value (shortened to “formation rate (%) … 2 hr later”) is 50.6%; the “formation rate (%) of the peptide obtained by trimming, 4 hr later” value (shortened to “formation rate (%) … 4 hr later”) was 13.5%; the “formation rate (%) of the peptide obtained by trimming, 8 hr later” value (shortened to “formation rate (%) … 8 hr later”) was 0%.
In the case of CNKRYFKLSHLQMHSRK [SEQ ID NO: 22], in data set [1], the solubility at 90 min is more than 1000 µg/mL and the thermodynamic solubility at 90 min worked out at 931 µg/mL.
Taken in the same sequence, the figures for CNKRYFKLSHLQMHSRKH [SEQ ID NO: 23] were more than 1000 µg/mL and 712 µg/mL.
Take CNKRYFKLSHLQMHSRKHTG [SEQ ID NO: 24]: in data set [1], the solubility at 90 min was more than 1000 µg/mL and the thermodynamic solubility at 90 min is 556 µg/mL.
With CRVPGVAPTL [Example 4], in data set [2], the “formation rate (%) … 1 hr later” value came to 59.1%; the “formation rate (%) … 2 hr later” value was 57.5%; the “formation rate (%) … 4 hr later” value was 30.1%; the “formation rate (%) … 8 hr later” value is reported as 7.80%.
As for CSLGEQQYSV [Example 5], in data set [2], the “formation rate (%) … 1 hr later” value turned out to be 77.6%; the “formation rate (%) … 2 hr later” value stood at 72.8%; the “formation rate (%) … 4 hr later” value stood at 46.0%; the “formation rate (%) … 8 hr later” value is listed as 7.90%.
Take CYTWNQMNL [SEQ ID NO: 4]: the solubility at 90 min in data set [3] (pH 6) was 106 µg/mL. Also, the solubility (thermodynamic) at 90 min in data set [3] (pH 7.4) came out at 167 µg/mL.
As for SLGEQQYSV [SEQ ID NO: 6], in data set [1], the solubility at 90 min was more than 1000 µg/mL and the solubility (thermodynamic) at 90 min was more than 1000 µg/mL.
